From patent US20230357159A1, “QUINOLINE COMPOUNDS AS SELECTIVE AND/OR DUAL MODULATORS OF BILE ACID RECEPTORS AND LEUKOTRIENE CYSTEINYL RECEPTORS” (PRECISION BIO-THERAPEUTICS S.R.L., priority 2020, published 2023)
pEC50, pIC50: −log10 of the molar value. ≈ marks a conversion by molar mass, not a printed value.

Key:
[1] = molecular target: T1, CysLT1R (Homo sapiens, UniProt Q9Y271); experiment: CysLT1R antagonistic activity assay (Ca2+ fluorescence, 0.1 nM LTD4; Eurofins Cerep-Panlabs); type: cell-based; conditions: for pIC50: antagonism of 0.1 nM LTD4, read-out: CysLTR1 ICso; for inhibition at 10 µM: read-out: CysLTR1 (% of inhibition compared to the compound MK571)
T1 construct: Eurofins Cerep-Panlabs (France)
T1 sequence (Q9Y271 1-337): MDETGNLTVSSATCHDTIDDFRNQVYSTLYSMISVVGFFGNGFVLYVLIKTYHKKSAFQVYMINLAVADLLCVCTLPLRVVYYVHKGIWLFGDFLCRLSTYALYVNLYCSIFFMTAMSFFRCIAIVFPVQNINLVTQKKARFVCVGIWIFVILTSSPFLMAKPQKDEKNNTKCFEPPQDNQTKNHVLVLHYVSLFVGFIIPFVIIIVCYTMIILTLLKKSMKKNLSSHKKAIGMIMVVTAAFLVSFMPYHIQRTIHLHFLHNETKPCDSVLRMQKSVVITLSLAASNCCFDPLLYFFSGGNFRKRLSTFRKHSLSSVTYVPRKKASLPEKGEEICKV
Method: (§1) In this table, the activities of the compounds are compared with specific reference compounds, namely CDCA for FXR, TLCA for TGR5/GPBAR1, MK571 for CysLT1R. Each compound is tested at a concentration of 10 microM and the activity of the reference compounds is considered to be 100%.
The antagonistic activity assay was performed by Eurofins Cerep-Panlabs (France). […] The plates are then placed in a microplate reader (CellLux, PerkinElmer), which is used to add the compounds to be tested or the HBSS buffer and then after 5 min with a 0.1 nM LTD4 or HBSS buffer solution (used as control). The change in intensity and fluorescence that varies in proportion to the concentration of free Ca^2+ ion in the cytosol is measured.

[2] = molecular target: T2, FXR (Homo sapiens, UniProt Q96RI1); experiment: FXR-mediated transactivation, luciferase reporter in HepG2 cells; type: cell-based; conditions: compound at 10 microM, CDCA = 100%
T2 construct: expressed in transfected cells; host or cells: HepG2
T2 sequence (Q96RI1 1-486): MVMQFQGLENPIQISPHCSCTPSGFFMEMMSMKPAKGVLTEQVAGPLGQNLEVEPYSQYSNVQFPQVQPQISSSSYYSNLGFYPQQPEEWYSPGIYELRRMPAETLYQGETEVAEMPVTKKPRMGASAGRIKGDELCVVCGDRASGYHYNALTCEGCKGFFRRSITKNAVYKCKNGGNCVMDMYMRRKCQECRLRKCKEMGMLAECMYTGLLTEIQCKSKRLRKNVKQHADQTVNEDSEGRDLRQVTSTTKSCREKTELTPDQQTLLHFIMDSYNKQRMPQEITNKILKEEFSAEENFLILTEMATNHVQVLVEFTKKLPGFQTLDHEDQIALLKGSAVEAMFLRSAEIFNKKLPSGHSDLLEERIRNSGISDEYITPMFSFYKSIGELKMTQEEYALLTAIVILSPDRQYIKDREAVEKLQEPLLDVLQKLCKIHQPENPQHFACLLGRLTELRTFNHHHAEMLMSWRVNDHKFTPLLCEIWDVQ
T2 sequence (P19793 1-462 partner): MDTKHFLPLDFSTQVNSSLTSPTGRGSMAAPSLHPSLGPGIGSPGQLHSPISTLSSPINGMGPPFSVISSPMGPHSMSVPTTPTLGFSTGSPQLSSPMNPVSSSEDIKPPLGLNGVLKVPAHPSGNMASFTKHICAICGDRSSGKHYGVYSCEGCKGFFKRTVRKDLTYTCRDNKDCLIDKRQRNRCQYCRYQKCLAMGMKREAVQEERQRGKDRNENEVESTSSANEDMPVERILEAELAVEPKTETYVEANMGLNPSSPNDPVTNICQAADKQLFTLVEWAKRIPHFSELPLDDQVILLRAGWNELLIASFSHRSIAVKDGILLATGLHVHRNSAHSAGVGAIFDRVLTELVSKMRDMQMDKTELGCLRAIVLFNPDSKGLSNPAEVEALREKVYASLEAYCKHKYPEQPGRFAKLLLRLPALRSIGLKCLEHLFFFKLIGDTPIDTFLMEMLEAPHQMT
Method: as §1
For FXR-mediated transactivation, the HepG2 cells were transfected with 200 ng of the p(hsp27)-TK-LUC reporter vector containing the FXR response element (IR1) cloned from the heat shock protein 27 (hsp27) promoter, 100 ng of pSG5-FXR, 100 ng of pSG5-RXR and 100 of pGL4.70 (Promega, Madison WI), a vector encoding for the human Renilla gene. […]
(§2) Eighteen hours after stimulation, the cell lysates were used to assess Luciferase and Renilla activity by means of the Dual-Luciferase Reporter assay (E1980, Promega Madison WI). The luminescence was measured using the Glomax 20/20 luminometer (Promega, Madison WI) and the Luciferase activity was normalised with the Renilla activity.

[3] = molecular target: T3, human GPBAR1 (Homo sapiens, UniProt Q8TDU6); experiment: GPBAR1-mediated transactivation, CRE-luciferase reporter in HEK-293T cells; type: cell-based; conditions: for GPBAR1 (% of activity compared to 10 µM TLCA): compound at 10 microM, TLCA = 100%
T3 construct: expressed in transfected cells; host or cells: HEK-293T
T3 sequence (Q8TDU6 1-330): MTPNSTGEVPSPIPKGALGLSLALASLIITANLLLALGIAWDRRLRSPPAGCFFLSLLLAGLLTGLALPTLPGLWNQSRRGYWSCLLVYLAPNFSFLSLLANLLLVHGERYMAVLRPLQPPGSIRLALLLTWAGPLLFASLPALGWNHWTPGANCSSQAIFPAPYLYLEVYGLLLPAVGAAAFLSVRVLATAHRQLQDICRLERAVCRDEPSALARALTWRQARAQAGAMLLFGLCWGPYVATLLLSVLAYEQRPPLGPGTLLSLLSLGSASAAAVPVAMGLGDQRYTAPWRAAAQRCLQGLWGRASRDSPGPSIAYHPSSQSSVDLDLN
Method: as §1
In another experimental set, 24 hours after transfection, the cells were stimulated with 50 µM of the derivatives CHIN in combination with 10 µM of CDCA or TLCA.
as §2

[4] = molecular target: T2, FXR; experiment: FXR-mediated transactivation, luciferase reporter in HepG2 cells; type: cell-based; conditions: dose-response 0.1-75 µM, read-out: FXR ECso
[5] = tested on: S9 fraction; experiment: Metabolic stability in vitro, S9 fraction; type: in vitro ADME; conditions: also phase II enzymes
[6] = Aqueous solubility; type: physicochemical; conditions: pH 7.4
[7] = tested on: male C57BL/6 mice; experiment: HFD-F diet murine model of NAFLD/NASH; type: in vivo; conditions: 30 mg/kg daily from day 7
Method: CHIN117 and the efficacy thereof in a murine model of chronic hepatitis induced by a high-fat diet are of particular interest. This murine model simulates NAFLD, which represents a rapidly growing epidemic in industrialised countries and has a very high cost for the health care system. In this model, the mice (male C57BL/6 mice) were fed a diet rich in lipids and cholesterol (2% cholesterol) and added fructose (3%) in water (HFD-F) for 60 days. CHIN117 was administered daily at a dose of 30 mg/kg starting on day 7. […] After eight weeks, the mice develop insulin resistance, as shown by the OGTT results (FIGS. 4E, F).
In addition, HFD-F indicates an increase in body mass index (BMI) and weight of the white adipose tissue of the epididymis (eWAT), of the brown adipose tissue (BAT) and of the liver (FIGS. 5C-I).

[8] = tested on: wild-type C57/B16 mice; experiment: Acetaminophen (APAP)-induced acute hepatitis in mice; type: in vivo; conditions: APAP 500 mg/kg oral gavage; 30 mg/kg orally 45 min after induction; 24 hours
Method: CHIN117 and the effect thereof in reducing acetaminophen-induced liver damage (APAP) are of particular interest. In the experimental set, acute hepatitis was induced in wild-type C57/B16 mice by administration of acetaminophen (APAP) at a concentration of 500 mg/kg via oral gavage. 45 minutes after induction of the disease, CHIN117 was administered at a concentration of 30 mg/kg orally. The mice were sacrificed 24 hours after induction of the disease and blood was taken and analysed for blood count and AST and ALT transaminase values.
The administration of the compound CHIN117 was able to alleviate the APAP-induced liver damage by reducing AST and ALT values by about 10-fold if compared to those recorded in the group of mice treated with APAP alone.

[9] = compound at 10 microM, MK571 = 100%, 0.1 nM LTD4

SMILES | inhibition at 10 µM [1, 9] [%] | FXR (% of activity compared to 10 µM CDCA) [2] [%] | GPBAR1 (% of activity compared to 10 µM TLCA) [3] [%] | other results
COC(=O)c1cc(O)cc(OCc2ccc3ccccc3n2)c1 [CHIN107, methyl 3-hydroxy-5-(quinolin-2-ylmethoxy)benzoate] | 59 | 12.78 | 17.58 | pIC50 [1]: < 5.00
COC(=O)c1cccc(OCc2ccc3ccccc3n2)c1 [CHIN104, Methyl 3-(Quinolin-2-ylmethoxy)Benzoate] | – | 32.46 | 23 | pEC50 [4]: 5.05
CC(C)Oc1cccc(OCc2ccc3ccccc3n2)c1 [CHIN111, 2-((3-isopropoxyphenoxy)methyl)quinoline] | 79 | – | – | –
OCc1cccc(-c2ccc(OCc3ccc4ccccc4n3)cc2)c1 [CHIN118] | – | – | – | CysLTR1 (% of inhibition compared to the compound MK571) [1, 9]: 59%
OCc1cc(O)cc(OCc2ccc3ccccc3n2)c1 [CHIN109, 3-(hydroxymethyl) -5-(quinolin-2-ylmethoxy)phenol] | 26 | 5.92 | – | –
COC(=O)c1ccc(-c2ccc(OCc3ccc4ccccc4n3)cc2)cc1 [CHIN119, Methyl 4′-(quinolin-2-ylmethoxy)-[1,1′-biphenyl]-4-carboxylate] | 13 | 6.83 | 13.5 | –
CCC(C)COc1cccc(OCc2ccc3ccccc3n2)c1 (stereo not shown) [CHIN114, 2-((3-(2-methylbutoxy)phenoxy)methyl)quinoline] | 15 | – | – | –
COC(=O)c1cccc(-c2ccc(OCc3ccc4ccccc4n3)cc2)c1 [CHIN116, Methyl 4′-(quinolin-2-ylmethoxy)-[1,1′-biphenyl]-3-carboxylate] | 21 | 11.14 | 56.91 | –
O=C(O)c1cccc(-c2ccc(OCc3ccc4ccccc4n3)cc2)c1 [CHIN117, 4′-(quinolin-2-ylmethoxy)-[1,1′-biphenyl]-3-carboxylic Acid] | 109 | 8.9 | 82 | CLint S9 fraction [5]: 6; aqueous solubility [6]: 66 µM (≈ 23.5 µg/mL); pIC50 [1]: 5.25; pEC50 ([3]; dose-response 0.1-75 µM, read-out: GPBAR1 ECso): 5.34; reduction of weight gain ([7]; HFD-F diet 60 days): about 3 grams; hepatic steatosis, BMI and eWAT, BAT and liver weight ([7]; HFD-F diet for 8 weeks): almost completely reversed the disease; AUC of OGTT ([7]; HFD-F diet, after eight weeks): reduces the AUC of OGTT; ALT levels ([7]; plasma, HFD-F diet): statistically reduces; AST levels ([7]; plasma, HFD-F diet): statistically reduces; LDL levels ([7]; plasma, HFD-F diet): statistically reduces; circulating white blood cell (WBC) values [8]: comparable to those found in untreated mice; reduction of ALT values compared to mice treated with APAP alone [8]: about 10 fold; reduction of AST values compared to mice treated with APAP alone [8]: about 10 fold
OCc1cccc(-c2ccc(OCc3ccc4ccccc4n3)cc2)c1 [CHIN121, (4′-(quinolin-2-ylmethoxy)-[1,1′-biphenyl]-3-yl)methanol] | – | 8.22 | 64.9 | –
O=C(O)c1ccc(-c2ccc(OCc3ccc4ccccc4n3)cc2)cc1 [CHIN120, 4′-(quinolin-2-ylmethoxy)-[1,1′-biphenyl]-4-carboxylic Acid] | 43 | 12.76 | 36.74 | –
O=C(O)c1cc(O)cc(OCc2ccc3ccccc3n2)c1 [CHIN108, 3-hydroxy-5-(quinolin-2-ylmethoxy)benzoic Acid] | – | 8.22 | – | –
